According to patent US20240016786A1, “GLUCOSIDASE INHIBITORS FOR THE TREATMENT AND PREVENTION OF PULMONARY INFECTIONS” (priority 2020, published 2024):
≈ marks a conversion by molar mass, not a printed value. Read-outs that look alike come from different tables or passages of the source.

What was measured:
[1] = system: SARS-Cov-2 Germany/BavPat1/2020; test: SARS-CoV-2 Virospot reduction assay (Viroclinics), Vero E6 cells; format: cell-based
Description: SARS-CoV-2 testing was carried out by the independent contract research organization Viroclinics, Netherlands, using the SARS—CoV-2 Virospot reduction assay. This is a high throughput assay to determine the IC50/IC90 (also termed EC50/EC90) of putative antiviral compounds as compared to other assay formats (such as traditional plaque count assays), and improved traceability from raw data to results. The assay measures drug or antibody-mediated reduction of virus propagation in cell monolayers, by virus-specific immunostaining and automated imaging of infected cells. Automated counting of the number of infected foci (i.e., “spots”) provides the raw data for IC50/IC90 calculations.
A serial dilution series of the test article is mixed with a fixed amount of virus and the virus/inhibitor is added to Vero E6 cells. Virus control wells without inhibitor and cell controls without drug and virus are included. Viral propagation is measured after 16-24 h incubation by TrueBlue immunostaining of infected cells and automated counting of viral “spots” (corresponding to area of viral growth and protein expression) and the IC50 value is calculated using 4 replicates.
Adherent cells were seeded in multi-well plates. Cell cultures were inoculated with a standardized amount of virus, in the absence and presence of serial compound dilutions, followed by 18-24 hours of incubation and an appropriate virus detection method (Immunostaining and count spots using a CTL Immunospot Image Analyser).
Virus signals were detected in presence of each compound concentration determine the 50% inhibitory concentration (IC50) and the 90% inhibitory concentration (IC90). The IC50 and IC90 values were calculated from the virus signals using the method described by Zielinska et al. (Virol J. 2005, 2(84)).
Remdesivir was used as a positive control.
Although cytotoxicity was not directly measured, the assay required intact cell monolayers to deliver a result. Severe cytotoxicity would be evident upon visual inspection and any deleterious effect of compound upon cell health is likely to negatively impact the formation of “spots”. This was not reported.

[2] = system: SARS-Cov-2 SA (B.1.351); test: as above; format: cell-based
[3] = system: SARS-Cov-2 UK (B.1.1.7); test: as above; format: cell-based
[4] = system: SARS-CoV-2; test: SARS-CoV-2 Virospot reduction assay, (strain not specified); format: cell-based; conditions: for activity against strains of SARS-CoV-2: good in vitro activity e.g. IC50<100 μg/mL
[5] = Hygroscopicity observed on recovery of spray dried material; format: physicochemical; conditions: on collection/recovery after spray drying
[6] = system: SARS-CoV-2; conditions: Huh7-hACE2 cells; cited from earlier work
[7] = system: Huh7-hACE2 cells; conditions: cited from earlier work
[8] = system: SARS-CoV-1; conditions: SARS-CoV-1 in vitro; cited from earlier work
[9] = system: Huh7-hACE2 cells; conditions: cited from earlier work; remark: listed apart in the source
[10] = system: cells in culture; conditions: cited from earlier work
[11] = Severe acute respiratory syndrome coronavirus 2, Vero C1008, read-out: IC50
[12] = Severe acute respiratory syndrome coronavirus 2, Vero C1008, read-out: IC90
[13] = Severe acute respiratory syndrome coronavirus 2, Virospot reduction assay

Row | Structure (SMILES) | IC50 [1, 11] | IC90 [1, 12] | IC50 [2, 11] | IC90 [2, 12] | IC50 [3, 11] | IC90 [3, 12] | activity against strains of SARS-CoV-2 [4] | other results
1 | CC(C)(C)NC(=O)N(CCCCCCN1C[C@H](O)[C@@H](O)[C@H](O)[C@H]1CO)C1CCCCC1 [IHVR-19029, 3-tert-butyl-1-cyclohexyl-1-[6-[(2R,3R,4R,5S)-3,4,5-trihydroxy-2-(hydroxymethyl)piperidin-1-yl]hexyl]urea] | 48.5 mg/L (≈ 109 µM) | > 200 mg/L | 5.5 mg/L (≈ 12.4 µM) | > 200 mg/L | 58.5 mg/L (≈ 132 µM) | > 200 mg/L | active against at least three strain | 
2 | OC[C@@H]1[C@@H](O)[C@H](O)[C@@H](O)CN1CCCCCOCC12CC3CC(CC(C3)C1)C2 [AMP-DNM, N-adamantanemethyloxypentyl-1-deoxynojirimycin] |  |  |  |  |  |  | active against at least three strain | IC50 [1]: 8.3 mg/L (≈ 20.9 µM); IC90 [1]: 28.6 mg/L (≈ 71.9 µM); IC50 [2]: 2.7 mg/L (≈ 6.79 µM); IC90 [2]: 24.8 mg/L (≈ 62.4 µM); IC50 [3]: 7.7 mg/L (≈ 19.4 µM); IC90 [3]: 34.4 mg/L (≈ 86.5 µM)
3 | OCCN1C[C@H](O)[C@@H](O)[C@H](O)[C@H]1CO [Glyset (Miglitol), miglitol] | > 200 mg/L | > 200 mg/L | 90 mg/L (≈ 434 µM) | > 200 mg/L | > 200 mg/L | > 200 mg/L | active against at least one strain | hygroscopicity [5]: extremely hygroscopic
4 | OCC(CO)N[C@H]1C[C@](O)(CO)[C@@H](O)[C@H](O)[C@H]1O [Voglibose] | > 200 mg/L | > 200 mg/L | 91.2 mg/L (≈ 341 µM) | > 200 mg/L | > 200 mg/L | > 200 mg/L | active against at least one strain | 
5 | CCCC(=O)O[C@H]1CN2CC[C@H](O)[C@@H]2[C@@H](O)[C@@H]1O [Celgosivir (6-O-butanoylcastanospermine), 6-O-butanoylcastanospermine] | > 200 mg/L | > 200 mg/L | > 200 mg/L | > 200 mg/L | > 200 mg/L | > 200 mg/L |  | IC50 [4, 13]: > 200 mg/L; EC50 [6]: 1 ± 0.2 µM; lack of cytotoxicity up to the highest concentrations tested ([7]; viable nuclei, Huh7-hACE2 cells): 500 µM
6 | [N-]=[N+]=Nc1ccc(NCCCCCCN2C[C@H](O)[C@@H](O)[C@H](O)[C@H]2CO)c([N+](=O)[O-])c1 [NAP-DNJ, N-(6′-[4″-azido-2″-nitrophenylamino]hexyl)-1-deoxynojirimycin] | 1.4 mg/L (≈ 3.3 µM) | 10.2 mg/L (≈ 24 µM) | 0.1 mg/L (≈ 0.236 µM) | 5.7 mg/L (≈ 13.4 µM) | 1.7 mg/L (≈ 4.01 µM) | 7.9 mg/L (≈ 18.6 µM) | active against at least three strain | IC50 [4, 13]: < 10 mg/L; IC90 [4, 13]: < 40 mg/L
7 | CCCCN1C[C@H](O)[C@@H](O)[C@H](O)[C@H]1CO [Miglustat (NB-DNJ), N-butyl-1-deoxynojirimycin] | > 200 mg/L | > 200 mg/L | 19.2 mg/L (≈ 87.6 µM) | > 200 mg/L | > 200 mg/L | > 200 mg/L | active against at least one strain | IC50 [2]: 15.0 mg/L (≈ 68.4 µM); EC50 [6]: 19.9 ± 3.4 µM; EC50 [8]: ~100 mg/L (≈ 456 µM); lack of cytotoxicity up to the highest concentrations tested [7]: 200 µM; CC50 [9]: > 1000 µM; cytotoxicity [10]: little cytotoxicity
8 | C[C@H]1O[C@H](O[C@H]2[C@H](O)[C@@H](O)[C@@H](O[C@H]3[C@H](O)[C@@H](O)C(O)O[C@@H]3CO)O[C@@H]2CO)[C@H](O)[C@@H](O)[C@@H]1N[C@H]1C=C(CO)[C@@H](O)[C@H](O)[C@H]1O (stereo partly drawn) [Acarbose] | > 200 mg/L | > 200 mg/L | > 200 mg/L | > 200 mg/L | > 200 mg/L | > 200 mg/L |  | 
